Assay results: the NIST ThermoML archive (doi:10.1016/j.jct.2004.06.009)
Numbers after ± are expanded uncertainties.

SMILES | Triple point temperature (Crystal 1) [K] | Triple point temperature (Crystal 2) [K] | Triple point temperature (Crystal) [K]
CC12CC3CC(C1)CC(C)(C3)C2 [1,3-dimethyladamantane] | 247.79 ± 0.16 | 223.38 ± 0.16 | 
CCC12CC3CC(CC(C3)C1)C2 [1-ethyladamantane] |  |  | 225.56 ± 0.16
